Source: ChEMBL document CHEMBL5463725, “Data for DCP probe BAY-277” (2023)
Calls of active or inactive are those of the source. The rule behind the calls is not given here.

Legend:
[1] = target: Methionine aminopeptidase 2 (Homo sapiens, UniProt P50579); experiment: Degradation in HT1080 cells (CE) (Capillary electrophoresis (CE)); assay type: functional, cell-based; conditions: ht-1080
[2] = target: Hepatocyte growth factor receptor (Homo sapiens) (UniProt P08581); experiment: Inhibition of Met(h) at 10.0 µM in the Eurofins Kinase panel; conditions: Compound concentration 10.0 uM
Hepatocyte growth factor receptor (Homo sapiens), sequence (P08581 whole entry): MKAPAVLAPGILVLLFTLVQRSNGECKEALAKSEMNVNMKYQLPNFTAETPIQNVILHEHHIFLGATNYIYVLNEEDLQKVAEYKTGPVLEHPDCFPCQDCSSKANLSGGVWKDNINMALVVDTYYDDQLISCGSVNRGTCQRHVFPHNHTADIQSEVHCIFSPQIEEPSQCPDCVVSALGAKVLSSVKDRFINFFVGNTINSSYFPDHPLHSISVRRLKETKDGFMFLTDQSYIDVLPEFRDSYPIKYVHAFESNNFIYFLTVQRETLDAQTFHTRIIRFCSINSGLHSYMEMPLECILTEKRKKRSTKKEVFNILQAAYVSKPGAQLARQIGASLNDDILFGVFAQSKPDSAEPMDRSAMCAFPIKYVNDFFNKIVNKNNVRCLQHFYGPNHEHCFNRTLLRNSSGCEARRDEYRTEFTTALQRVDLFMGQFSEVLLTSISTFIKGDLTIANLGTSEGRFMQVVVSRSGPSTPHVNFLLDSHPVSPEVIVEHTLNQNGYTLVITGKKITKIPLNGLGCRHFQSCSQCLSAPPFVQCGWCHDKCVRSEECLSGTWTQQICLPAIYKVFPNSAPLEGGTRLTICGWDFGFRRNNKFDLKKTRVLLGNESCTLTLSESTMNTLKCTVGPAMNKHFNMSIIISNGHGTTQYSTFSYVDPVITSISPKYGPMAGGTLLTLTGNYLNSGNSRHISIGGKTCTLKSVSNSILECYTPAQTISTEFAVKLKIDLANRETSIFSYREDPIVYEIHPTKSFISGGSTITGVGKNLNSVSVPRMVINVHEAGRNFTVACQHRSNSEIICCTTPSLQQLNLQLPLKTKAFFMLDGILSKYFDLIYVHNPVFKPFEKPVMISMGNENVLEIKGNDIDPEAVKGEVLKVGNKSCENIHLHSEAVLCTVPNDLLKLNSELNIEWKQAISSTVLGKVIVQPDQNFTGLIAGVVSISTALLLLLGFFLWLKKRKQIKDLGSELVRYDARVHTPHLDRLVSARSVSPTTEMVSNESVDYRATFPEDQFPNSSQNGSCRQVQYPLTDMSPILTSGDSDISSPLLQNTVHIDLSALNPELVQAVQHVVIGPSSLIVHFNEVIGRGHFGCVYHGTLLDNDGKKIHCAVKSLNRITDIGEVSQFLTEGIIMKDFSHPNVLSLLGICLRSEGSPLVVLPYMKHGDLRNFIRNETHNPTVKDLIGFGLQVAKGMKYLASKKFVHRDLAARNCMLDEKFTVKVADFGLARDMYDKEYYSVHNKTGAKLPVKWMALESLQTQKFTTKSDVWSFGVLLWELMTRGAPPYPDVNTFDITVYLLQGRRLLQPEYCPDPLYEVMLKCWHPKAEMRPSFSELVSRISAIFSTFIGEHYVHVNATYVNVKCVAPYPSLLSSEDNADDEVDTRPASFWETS

[3] = target: Serine/threonine-protein kinase pim-2 (Homo sapiens) (UniProt Q9P1W9); experiment: Inhibition of Pim-2(h) at 10.0 µM in the Eurofins Kinase panel; conditions: Compound concentration 10.0 uM
[4] = target: Beta-adrenergic receptor kinase 1 (Homo sapiens) (UniProt P25098); experiment: Inhibition of GRK2(h) at 10.0 µM in the Eurofins Kinase panel; conditions: Compound concentration 10.0 uM
[5] = target: Prostaglandin G/H synthase 2 (Homo sapiens) (UniProt P35354); experiment: Inhibition of Cyclooxygenase COX-2 at 10.0 µM in the Eurofins Panlabs Safety Screen; conditions: Compound concentration 10.0 uM
[6] = target: 3',5'-cyclic-AMP phosphodiesterase 4D (Homo sapiens) (UniProt Q08499); experiment: Inhibition of Phosphodiesterase PDE4D2 at 10.0 µM in the Eurofins Panlabs Safety Screen; conditions: Compound concentration 10.0 uM
[7] = target: cGMP-specific 3',5'-cyclic phosphodiesterase (Homo sapiens) (UniProt O76074); experiment: Inhibition of Phosphodiesterase PDE5A at 10.0 µM in the Eurofins Panlabs Safety Screen; conditions: Compound concentration 10.0 uM
[8] = target: Adenosine receptor A3 (Homo sapiens) (UniProt P0DMS8); experiment: Inhibition of Adenosine A3 at 10.0 µM in the Eurofins Panlabs Safety Screen; conditions: Compound concentration 10.0 uM
Adenosine receptor A3 (Homo sapiens), sequence (P0DMS8 whole entry): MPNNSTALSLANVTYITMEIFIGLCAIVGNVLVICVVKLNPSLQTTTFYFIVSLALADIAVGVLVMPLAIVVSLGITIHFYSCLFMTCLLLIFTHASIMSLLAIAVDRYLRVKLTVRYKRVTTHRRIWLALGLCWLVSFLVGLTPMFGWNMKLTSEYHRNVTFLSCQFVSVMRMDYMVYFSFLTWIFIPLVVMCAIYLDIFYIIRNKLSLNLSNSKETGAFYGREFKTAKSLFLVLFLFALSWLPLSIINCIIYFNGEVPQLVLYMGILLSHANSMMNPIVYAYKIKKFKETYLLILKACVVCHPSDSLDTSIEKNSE

[9] = target: Type-1 angiotensin II receptor (Homo sapiens) (UniProt P30556); experiment: Inhibition of Angiotensin AT1 at 10.0 µM in the Eurofins Panlabs Safety Screen; conditions: Compound concentration 10.0 uM
Type-1 angiotensin II receptor (Homo sapiens), sequence (P30556 whole entry): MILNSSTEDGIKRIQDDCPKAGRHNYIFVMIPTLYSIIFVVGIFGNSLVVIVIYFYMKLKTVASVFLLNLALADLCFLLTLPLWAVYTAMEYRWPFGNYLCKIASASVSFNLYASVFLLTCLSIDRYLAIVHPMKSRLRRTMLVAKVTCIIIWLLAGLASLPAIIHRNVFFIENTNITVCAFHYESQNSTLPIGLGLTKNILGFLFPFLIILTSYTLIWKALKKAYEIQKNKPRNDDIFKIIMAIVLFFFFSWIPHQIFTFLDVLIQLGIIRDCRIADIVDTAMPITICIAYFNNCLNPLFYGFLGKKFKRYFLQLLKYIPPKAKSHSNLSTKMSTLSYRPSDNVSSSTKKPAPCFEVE

[10] = target: Estrogen receptor (Homo sapiens) (UniProt P03372); experiment: Inhibition of Estrogen Eralpha at 10.0 µM in the Eurofins Panlabs Safety Screen; conditions: Compound concentration 10.0 uM
[11] = target: Glutamate receptor ionotropic, kainate 2 (Homo sapiens) (UniProt Q13002); experiment: Inhibition of Glutamate, Kainate at 10.0 µM in the Eurofins Panlabs Safety Screen; conditions: Rattus norvegicus; Compound concentration 10.0 uM
[12] = target: Growth hormone secretagogue receptor type 1 (Homo sapiens) (UniProt Q92847); experiment: Inhibition of Growth Hormone Secretagogue (GHS, Ghrelin) at 10.0 µM in the Eurofins Panlabs Safety Screen; conditions: Compound concentration 10.0 uM
Growth hormone secretagogue receptor type 1 (Homo sapiens), sequence (Q92847 whole entry): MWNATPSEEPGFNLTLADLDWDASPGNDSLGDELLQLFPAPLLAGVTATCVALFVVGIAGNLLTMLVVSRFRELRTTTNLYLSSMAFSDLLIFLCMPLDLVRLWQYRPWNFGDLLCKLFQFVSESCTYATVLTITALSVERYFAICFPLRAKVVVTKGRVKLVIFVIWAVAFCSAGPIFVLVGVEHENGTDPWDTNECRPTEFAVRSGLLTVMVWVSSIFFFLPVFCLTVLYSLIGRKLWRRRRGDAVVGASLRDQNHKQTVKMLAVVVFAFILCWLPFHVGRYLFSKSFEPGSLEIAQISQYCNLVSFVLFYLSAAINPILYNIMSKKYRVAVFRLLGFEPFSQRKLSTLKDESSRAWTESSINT

[13] = target: T1, Muscarinic acetylcholine receptor M1 (Homo sapiens) (UniProt P11229); experiment: Inhibition of Muscarinic M1 at 10.0 µM in the Eurofins Panlabs Safety Screen; conditions: Compound concentration 10.0 uM
T1 sequence (whole entry): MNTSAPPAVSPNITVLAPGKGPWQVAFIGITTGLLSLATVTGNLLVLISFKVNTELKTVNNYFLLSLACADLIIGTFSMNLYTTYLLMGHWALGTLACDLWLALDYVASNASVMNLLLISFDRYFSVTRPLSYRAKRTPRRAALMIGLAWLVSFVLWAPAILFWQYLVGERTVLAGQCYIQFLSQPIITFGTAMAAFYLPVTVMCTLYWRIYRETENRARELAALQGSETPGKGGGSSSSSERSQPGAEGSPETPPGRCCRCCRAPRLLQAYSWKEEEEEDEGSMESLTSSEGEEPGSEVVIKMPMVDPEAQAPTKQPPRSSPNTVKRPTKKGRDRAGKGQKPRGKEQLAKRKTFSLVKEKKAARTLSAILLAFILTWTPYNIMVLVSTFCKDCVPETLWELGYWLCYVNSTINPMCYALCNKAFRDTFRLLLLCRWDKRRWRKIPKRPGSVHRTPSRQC

[14] = target: T2, Muscarinic acetylcholine receptor M4 (Homo sapiens) (UniProt P08173); experiment: Inhibition of Muscarinic M4 at 10.0 µM in the Eurofins Panlabs Safety Screen; conditions: Compound concentration 10.0 uM
T2 sequence (whole entry): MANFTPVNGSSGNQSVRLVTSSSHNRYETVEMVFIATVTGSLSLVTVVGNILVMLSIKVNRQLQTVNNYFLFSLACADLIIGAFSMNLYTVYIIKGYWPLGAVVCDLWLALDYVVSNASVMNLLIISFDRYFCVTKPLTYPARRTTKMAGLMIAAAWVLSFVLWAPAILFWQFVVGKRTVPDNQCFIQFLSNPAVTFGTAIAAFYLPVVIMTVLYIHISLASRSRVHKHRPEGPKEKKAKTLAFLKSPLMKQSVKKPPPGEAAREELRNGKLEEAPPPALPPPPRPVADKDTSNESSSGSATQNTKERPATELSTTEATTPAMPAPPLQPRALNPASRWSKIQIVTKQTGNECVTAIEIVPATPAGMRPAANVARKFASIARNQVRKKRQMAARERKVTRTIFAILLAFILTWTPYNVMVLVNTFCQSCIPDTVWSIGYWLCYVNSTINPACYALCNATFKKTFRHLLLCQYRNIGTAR

[15] = target: 5-hydroxytryptamine receptor 2A (Homo sapiens) (UniProt P28223); experiment: Inhibition of Serotonin (5-Hydroxytryptamine) 5-HT2A at 10.0 µM in the Eurofins Panlabs Safety Screen; conditions: Compound concentration 10.0 uM
[16] = target: Sodium-dependent dopamine transporter (Homo sapiens, UniProt Q01959); experiment: Inhibition of Transporter, Dopamine (DAT) at 10.0 µM in the Eurofins Panlabs Safety Screen; conditions: Compound concentration 10.0 uM
[17] = target: T3, 5-hydroxytryptamine receptor 2C (Homo sapiens) (UniProt P28335); conditions: Compound concentration 10.0 uM
T3 sequence (whole entry): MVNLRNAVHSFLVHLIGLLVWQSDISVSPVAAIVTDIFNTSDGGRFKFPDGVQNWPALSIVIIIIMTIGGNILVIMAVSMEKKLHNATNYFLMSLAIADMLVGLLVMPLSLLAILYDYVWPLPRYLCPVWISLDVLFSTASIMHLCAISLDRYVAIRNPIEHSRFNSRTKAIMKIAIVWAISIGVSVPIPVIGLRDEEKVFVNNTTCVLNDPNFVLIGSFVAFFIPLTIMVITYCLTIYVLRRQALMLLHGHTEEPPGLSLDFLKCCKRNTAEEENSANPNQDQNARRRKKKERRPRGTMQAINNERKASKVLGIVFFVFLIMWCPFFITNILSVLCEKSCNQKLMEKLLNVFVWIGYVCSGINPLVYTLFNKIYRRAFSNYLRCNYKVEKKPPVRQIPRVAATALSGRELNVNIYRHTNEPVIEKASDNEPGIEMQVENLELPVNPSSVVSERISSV

[18] = target: 5-hydroxytryptamine receptor 7 (Homo sapiens) (UniProt P34969); conditions: Compound concentration 10.0 uM
5-hydroxytryptamine receptor 7 (Homo sapiens), sequence (P34969 whole entry): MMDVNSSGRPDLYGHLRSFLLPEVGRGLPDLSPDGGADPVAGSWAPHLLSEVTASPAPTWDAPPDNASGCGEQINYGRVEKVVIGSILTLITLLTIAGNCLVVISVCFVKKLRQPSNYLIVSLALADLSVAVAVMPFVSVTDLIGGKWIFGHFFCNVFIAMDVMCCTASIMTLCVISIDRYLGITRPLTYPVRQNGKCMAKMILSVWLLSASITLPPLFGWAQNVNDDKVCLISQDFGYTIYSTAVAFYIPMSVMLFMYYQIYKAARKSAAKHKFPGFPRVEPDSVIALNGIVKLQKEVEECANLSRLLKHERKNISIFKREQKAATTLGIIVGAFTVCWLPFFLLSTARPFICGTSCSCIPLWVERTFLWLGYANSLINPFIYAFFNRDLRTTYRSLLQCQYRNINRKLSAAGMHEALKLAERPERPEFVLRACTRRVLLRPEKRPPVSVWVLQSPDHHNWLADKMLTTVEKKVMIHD

D(3) dopamine receptor = D(3) dopamine receptor (Homo sapiens, UniProt P35462); conditions: Compound concentration 10.0 uM
D(3) dopamine receptor, sequence (P35462 whole entry): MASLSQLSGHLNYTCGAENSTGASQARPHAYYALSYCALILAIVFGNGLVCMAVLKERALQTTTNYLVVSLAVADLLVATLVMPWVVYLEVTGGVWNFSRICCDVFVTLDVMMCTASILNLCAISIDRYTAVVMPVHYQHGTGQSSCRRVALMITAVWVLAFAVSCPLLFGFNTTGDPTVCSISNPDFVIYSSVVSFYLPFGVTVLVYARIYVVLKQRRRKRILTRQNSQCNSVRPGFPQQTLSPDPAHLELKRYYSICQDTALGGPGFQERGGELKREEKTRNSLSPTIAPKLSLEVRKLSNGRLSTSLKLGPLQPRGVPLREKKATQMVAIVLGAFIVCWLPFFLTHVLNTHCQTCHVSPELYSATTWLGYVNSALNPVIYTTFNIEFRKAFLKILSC

[19] = target: D(1B) dopamine receptor (Homo sapiens) (UniProt P21918); conditions: Compound concentration 10.0 uM
D(1B) dopamine receptor (Homo sapiens), sequence (P21918 whole entry): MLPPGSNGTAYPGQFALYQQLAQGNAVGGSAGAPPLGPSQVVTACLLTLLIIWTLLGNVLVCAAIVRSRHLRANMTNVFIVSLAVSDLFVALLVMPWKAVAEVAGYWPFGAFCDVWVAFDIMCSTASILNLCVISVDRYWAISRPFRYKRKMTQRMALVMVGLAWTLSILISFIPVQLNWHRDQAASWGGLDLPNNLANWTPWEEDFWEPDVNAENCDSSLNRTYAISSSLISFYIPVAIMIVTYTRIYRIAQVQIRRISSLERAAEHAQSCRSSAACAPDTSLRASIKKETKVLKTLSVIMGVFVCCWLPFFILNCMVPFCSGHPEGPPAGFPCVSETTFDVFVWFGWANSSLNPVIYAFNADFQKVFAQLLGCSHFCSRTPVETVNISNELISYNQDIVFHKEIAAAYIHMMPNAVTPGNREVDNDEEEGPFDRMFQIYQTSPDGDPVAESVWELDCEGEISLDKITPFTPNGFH

Histamine H3 receptor = Histamine H3 receptor (Homo sapiens, UniProt Q9Y5N1); conditions: Compound concentration 10.0 uM
Histamine H3 receptor, sequence (Q9Y5N1 whole entry): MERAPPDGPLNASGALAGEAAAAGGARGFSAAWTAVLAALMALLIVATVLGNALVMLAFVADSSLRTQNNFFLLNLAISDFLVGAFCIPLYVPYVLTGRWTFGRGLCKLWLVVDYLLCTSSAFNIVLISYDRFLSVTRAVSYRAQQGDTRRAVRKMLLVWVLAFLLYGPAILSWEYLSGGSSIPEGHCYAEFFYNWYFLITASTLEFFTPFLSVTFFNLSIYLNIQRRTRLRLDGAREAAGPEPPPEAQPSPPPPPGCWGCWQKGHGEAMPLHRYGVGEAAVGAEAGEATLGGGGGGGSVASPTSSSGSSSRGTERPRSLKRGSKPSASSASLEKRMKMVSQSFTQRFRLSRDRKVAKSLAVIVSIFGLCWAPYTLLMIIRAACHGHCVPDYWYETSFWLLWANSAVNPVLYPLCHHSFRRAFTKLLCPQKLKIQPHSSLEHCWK

[20] = target: Alpha-1A adrenergic receptor (Homo sapiens) (UniProt P35348); conditions: Compound concentration 10.0 uM
Alpha-1A adrenergic receptor (Homo sapiens), sequence (P35348 whole entry): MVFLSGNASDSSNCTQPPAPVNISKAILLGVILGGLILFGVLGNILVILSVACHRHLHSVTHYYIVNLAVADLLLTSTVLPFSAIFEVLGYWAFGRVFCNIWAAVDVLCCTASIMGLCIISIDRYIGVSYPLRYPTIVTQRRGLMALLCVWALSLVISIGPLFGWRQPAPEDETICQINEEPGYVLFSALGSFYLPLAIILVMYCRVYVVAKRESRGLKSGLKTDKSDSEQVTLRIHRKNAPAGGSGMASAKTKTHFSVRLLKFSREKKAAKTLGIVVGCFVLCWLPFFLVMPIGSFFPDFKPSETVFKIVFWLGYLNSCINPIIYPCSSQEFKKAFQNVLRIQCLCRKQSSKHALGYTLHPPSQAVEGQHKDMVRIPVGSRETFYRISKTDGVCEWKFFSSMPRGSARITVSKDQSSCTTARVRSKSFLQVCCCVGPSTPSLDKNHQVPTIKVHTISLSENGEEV

Compound | DC50 [1] | inhibition [2] | inhibition [3] | inhibition [4] | inhibition [5] | inhibition [6] | inhibition [7] | inhibition [8] | inhibition [9] | inhibition [10] | inhibition [11] | inhibition [12] | inhibition [13] | inhibition [14] | inhibition [15] | inhibition [16] | inhibition [17] | inhibition [18] | inhibition (D(3) dopamine receptor) | inhibition [19] | other results
O=C1NCCCC1N1Cc2cc(C3CCN(C(=O)CCCCCN4CCC(c5ccc(Oc6nn7cnnc7c7c6CCCC7)cc5)CC4)CC3)ccc2C1=O (centres undefined) | > 1000 nM (not active) | 16.9% | 10.6% | 15.1% | -7% | 18% | 10% | 21% | 2% | 22% | 1% | 5% | 53% | 57% | 39% | 39% | 3.95% | 32.5% | 68.3% | 10.8% | inhibition (Histamine H3 receptor): 91.5%; inhibition [20]: -1.93%
O=C1CCC(N2Cc3cc(C4CCN(C(=O)CCCCCN5CCC(c6ccc(Oc7nn8cnnc8c8c7CCCC8)cc6)CC5)CC4)ccc3C2=O)C(=O)N1 (centres undefined) | 8.93 nM (active) | 22.7% | 15.4% | 11.9% | -6% | 10% | 25% | 16% | -4% | 17% | -2% | 2% | 53% | 70% | 35% | 38% | 5.83% | 36.8% | 25.6% | 1.6% | inhibition (Histamine H3 receptor): 100%; inhibition [20]: 12.2%
